Experiment [1] relates to monoclonal antibody (DAEFRH-peptide-specific). As to the kind of experiment: Inhibition assay (ELISA): mimotope peptides compete with plate-bound original epitope DAEFRH for recognition by the monoclonal antibody. It is filed as binding, Mice. Particulars: for inhibition of binding of the monoclonal antibody to the original epitope: text to FIGS. 2-9; for Inhibitory capacity of mimotopes: summary Tables 1 and 2 (Examples 2, 3).
From the text: Mice are vaccinated with the 6mer peptide DAEFRH (natural N-terminal Aβ42 sequence) linked to the protein bovine serum albumin BSA (to make use of the hapten-carrier-effect), emulsified in CFA (first injection) and IFA (booster injections). DAEFRH-peptide-specific, antibody-producing hybridomas are detected by ELISA (DAEFRH-peptide-coated ELISA plates).
FIGS. 2 and 3 describe the results of inhibition assays performed with mimotope peptides included in and obtained from the 5 libraries (as described in WO 2004/062556). The mimotope peptides compete with the original epitope for recognition by the monoclonal antibody. Original epitope and mimotope peptides contain an additional C at the C-terminus for coupling to a protein carrier (if desired).
(§1) After blocking with PBS/BSA 1% (200 μl/well, 12 h, 4° C.), the plates are washed 3× times with PBS/Tween. Then, biotinylated monoclonal antibody (1:2000, 50 μl/well) and peptides (50 μl/well) at 50, 5, 0.5, 0.05, 0.005, and 0.0005 μg/ml are added for 20 min. at 37° C. The plates are washed 3× times with PBS/Tween and are incubated with horseradish peroxidase (HRP)-labeled streptavidin (100 μl/well, 30 min, RT). The plates are washed 5× times with PBS/Tween and are incubated with ABTS+H2O2(0.1% w/v, 10 to 45 min) and the reaction is stopped with citric acid followed by photometric evaluation (wavelength 405 nm).
as §1, with “different concentrations” for “50, 5, 0.5, 0.05, 0.005, and 0.0005 μg/ml”, “ABTS+H2O2 (0.1%” for “ABTS+H2O2(0.1%”
as §1, with “different concentrations” for “50, 5, 0.5, 0.05, 0.005, and 0.0005 μg/ml”
Background: In an ELISA, binding on a coated surface is turned into a signal by an enzyme label.

Experiment [2] has as its system full length Aβ and/or fragments thereof. As to the kind of experiment: Immune response elicited by using AD mimotopes: detection of Aβ. It counts as in vivo. Also noted: key: +: All peptides listed in table 1 mount specific immune reactions against full length Aβ and/or fragments thereof. From the text:
In the following Table further examples of the immune response elicited by using AD mimotopes are described. All peptides listed in table 1 mount specific immune reactions against full length Aβ and/or fragments thereof.

The test system of experiment [3] is monoclonal antibody MV-003. As to the kind of experiment: In vitro binding assay (ELISA), BSA-coupled peptides, parental antibody MV-003. Details: species or system BalbC mice. The following applies: Table 1A; peptide-BSA on plate, compared to original epitope. How it is done: Peptides derived from Phage Display as well as variants thereof were coupled to BSA and bound to ELISA plates (1 μM; as indicated in the respective figures) and subsequently incubated with the monoclonal antibody that was used for the screening procedure to analyse binding capacity of identified peptides.
Legend to Table 1A: the binding capacity is coded by the following binding code: 1:X describes the dilution factor of the parental AB.

Experiment [4] relates to monoclonal antibody MV-003. As to the kind of experiment: In vitro inhibition assay (ELISA), MV-003 binding to original epitope. Details: species or system BalbC mice. The following applies: Table 2A; OD at 10 ug peptide compared to original peptide. How it is done:
Different amounts of peptides (concentrations ranging from 10 μg to 0.08 μg; serial dilutions; for MV-002: concentrations ranging from 5 μg to 0.03 μg; serial dilutions), derived from Phage Display were incubated with the monoclonal antibody that was used for the screening procedure. Peptides diminishing subsequent binding of the antibody to the original epitope coated on ELISA plates were considered as inhibiting in this assay.
Legend to Table 2A: the inhibition capacity is coded by the following code: Weak inhibition means more peptide is required to lower AB binding than with the original epitope; strong inhibition means similar peptide amounts are required for mimotope and original epitope for lowering AB binding. Mimotopes are compared to the original peptide as standard. OD at 10 ug peptide used in the assay is used to calculate the competition capacity compared to original peptide.

Experiment [5] concerns the target monoclonal antibody MV-004. As to the kind of experiment: inhibition ELISA, competitor coated original epitope p4372; code 1 = weaker than original epitope.
In experiment [6] the target is monoclonal antibody MV-003. As to the kind of experiment: inhibition ELISA, competitor coated original epitope p4373; code 1 = weaker than original epitope.
[7] abbreviates: competition ELISA, plate-bound DAEFRH-C-BSA.

“Also recorded” adds a separate entry of the source.

`N=C(N)NCCC[C@H](NC(=O)[C@H](Cc1ccccc1)NC(=O)[C@H](CCC(=O)O)NC(=O)[C@H](Cc1ccc(O)cc1)NC(=O)[C@@H](N)CCC(=O)O)C(=O)NCC(=O)N[C@@H](CS)C(=O)O` [Peptide 1239, EYEFRG]: the “IC50 (inhibition of monoclonal antibody recognition of DAEFRH)” value in experiment [1] (competition ELISA, plate-bound DAEFRH-C-BSA, biotinylated mAb 1:2000) was “more than 0.5 μg/ml”. In addition, the “inhibition of binding of the monoclonal antibody to the original epitope” value (from here on “inhibition of binding … to the original epitope”) in experiment [1] (setting [7]) is on record as “block epitope recognition”. Further, in experiment [1], the “Inhibitory capacity of mimotopes” value is “intermediate”. In addition, the “Detection of Aβ” value in experiment [2] was “+”.

Regarding `C[C@H](NC(=O)[C@@H](N)CCC(=O)O)C(=O)N[C@@H](CCC(=O)O)C(=O)N[C@@H](Cc1ccccc1)C(=O)N[C@@H](CCCNC(=N)N)C(=O)NCC(=O)N[C@@H](CS)C(=O)O` [Peptide 3006, EAEFRG], in experiment [1] (setting [7]), the “inhibition of binding … to the original epitope” value is reported as “block epitope recognition”. Also, the “Inhibitory capacity of mimotopes” value in experiment [1] is “strong”. Moreover, the “Detection of Aβ” value in experiment [2] is “+”.

In the case of IRWDTSLC [p4728], the “Binding Capacity” value in experiment [3] is 3 (strong binding :>60000). The “Inhibition Capacity” value in experiment [4] is reported as 2 (strong inhibition (as original epitope; OD of 10 ug peptide below 5 times of original peptide)).

IRWDQPC [p4756]: the “Binding Capacity” value in experiment [3] was 3 (strong binding :>60000). The “Inhibition Capacity” value in experiment [4] is 1 (Weaker than original epitope (OD of 10 ug peptide below 12 times of original peptide)).

As to `N=C(N)NCCC[C@H](NC(=O)[C@H](Cc1ccccc1)NC(=O)[C@H](CCC(=O)O)NC(=O)[C@H](Cc1ccc(O)cc1)NC(=O)[C@@H](N)CC(=O)O)C(=O)NCC(=O)N[C@@H](CS)C(=O)O` [Peptide 3007, DYEFRG], the “inhibition of binding … to the original epitope” value in experiment [1] (setting [7]) is recorded as “block epitope recognition”. In experiment [1], the “Inhibitory capacity of mimotopes” value is “strong”. In experiment [2], the “Detection of Aβ” value is “+”.

For the molecule `C[C@H](NC(=O)[C@@H](N)Cc1ccc(O)cc1)C(=O)N[C@@H](CCC(=O)O)C(=O)N[C@@H](Cc1ccccc1)C(=O)N[C@@H](CCCNC(=N)N)C(=O)NCC(=O)N[C@@H](CS)C(=O)O` [Peptide 3005, YAEFRG], the “inhibition of binding … to the original epitope” value in experiment [1] (setting [7]) is “block epitope recognition”. The “Inhibitory capacity of mimotopes” value in experiment [1] is on record as “intermediate”. The “Detection of Aβ” value in experiment [2] is “+”.

For `CC(C)C[C@H](NC(=O)[C@@H](N)CCC(=O)O)C(=O)N[C@@H](CCC(=O)O)C(=O)N[C@@H](Cc1ccccc1)C(=O)N[C@@H](CCCNC(=N)N)C(=O)NCC(=O)N[C@@H](CS)C(=O)O` [Peptide 3008, ELEFRG], the “Inhibitory capacity of mimotopes” value in experiment [1] is “weak”. Moreover, the “Detection of Aβ” value in experiment [2] is “+”.

Consider IRWDGC [p4792], for which the “Binding Capacity” value in experiment [3] was 1 (weak binding :<16000). In experiment [4], the “Inhibition Capacity” value is reported as 1 (Weaker than original epitope (OD of 10 ug peptide below 12 times of original peptide)).

In the case of IRWDGGC [p4793], the “Binding Capacity” value in experiment [3] was 2 (medium binding :16-60000). Besides, the “Inhibition Capacity” value in experiment [4] was 1 (Weaker than original epitope (OD of 10 ug peptide below 12 times of original peptide)).

GREFRN (GREFRNC) [Peptide 4003]: the “inhibition of binding … to the original epitope” value in experiment [1] (setting [7]) is “block epitope recognition; also recorded: only inhibitory at a relatively high concentration (10 μg/ml)”. Moreover, in experiment [1], the “Inhibitory capacity of mimotopes” value was “weak”. Besides, the “Detection of Aβ” value in experiment [2] is recorded as “+”.

EVWHRHQC [p4417] registered an OD at 10 ug peptide as multiple of OD with original peptide in experiment [5] of 2 to 5 fold.

IRWDGGC [p4793] had an OD at 10 ug peptide relative to OD of original peptide (inhibition ELISA) in experiment [6] of 5 to 12 fold.

As for IRWDTPC [p4395], in experiment [6], the OD at 10 ug peptide relative to OD of original peptide (inhibition ELISA) was in the range of 5 to 12 fold.

In experiment [5], ELWHRYPC [p4420] gave an OD at 10 ug peptide as multiple of OD with original peptide of 2 to 5 fold.

The record behind these values is patent US20130287807A1, “COMPOUNDS FOR TREATING SYMPTOMS ASSOCIATED WITH PARKINSON'S DISEASE” (priority 2008, published 2013).
